Test results from PubChem BioAssay (NCI).
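Cultured in 96-well plates, cells were exposed to test compound for 48 hours across five concentrations. GI50 marks 50% less growth. TGI denotes the concentration required for complete inhibition of growth.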

Legend:
Assay in all cases: NCI anticancer screen, dose series, 48 h
MDA-MB-468 breast = test system: MDA-MB-468 breast
OVCAR-4 ovarian = test system: OVCAR-4 ovarian
KM12 colon = test system: KM12 colon
HCT-116 colon = test system: HCT-116 colon
SK-OV-3 ovarian = test system: SK-OV-3 ovarian
U251 CNS = test system: U251 CNS
A498 renal = test system: A498 renal
M14 melanoma = test system: M14 melanoma
MDA-MB-435 = test system: MDA-MB-435
OVCAR-5 ovarian = test system: OVCAR-5 ovarian
HOP-62 NSCLC = test system: HOP-62 NSCLC
CAKI-1 renal = test system: CAKI-1 renal
SNB-75 CNS = test system: SNB-75 CNS
RPMI-8226 leukemia = test system: RPMI-8226 leukemia
HT29 colon = test system: HT29 colon
ACHN renal = test system: ACHN renal
SW-620 colon = test system: SW-620 colon
IGROV1 ovarian = test system: IGROV1 ovarian
MALME-3M melanoma = test system: MALME-3M melanoma
MOLT-4 leukemia = test system: MOLT-4 leukemia
HS 578T breast = test system: HS 578T breast
NCI-H226 lung = test system: NCI-H226 lung
SF-539 CNS = test system: SF-539 CNS
NCI-H460 lung = test system: NCI-H460 lung
TK-10 renal = test system: TK-10 renal
HCC-2998 colon = test system: HCC-2998 colon
RXF 393 renal = test system: RXF 393 renal
NCI-H522 lung = test system: NCI-H522 lung
MCF7 breast = test system: MCF7 breast
HOP-92 NSCLC = test system: HOP-92 NSCLC
OVCAR-3 ovarian = test system: OVCAR-3 ovarian
EKVX NSCLC = test system: EKVX NSCLC
CCRF-CEM leukemia = test system: CCRF-CEM leukemia
SK-MEL-2 melanoma = test system: SK-MEL-2 melanoma
NCI/ADR-RES ovarian = test system: NCI/ADR-RES ovarian
LOX IMVI melanoma = test system: LOX IMVI melanoma
SF-268 CNS = test system: SF-268 CNS
786-0 renal = test system: 786-0 renal
UACC-257 melanoma = test system: UACC-257 melanoma
HL-60(TB) leukemia = test system: HL-60(TB) leukemia
OVCAR-8 ovarian = test system: OVCAR-8 ovarian
COLO 205 colon = test system: COLO 205 colon
SK-MEL-28 melanoma = test system: SK-MEL-28 melanoma
HCT-15 colon = test system: HCT-15 colon
SF-295 CNS = test system: SF-295 CNS
A549 NSCLC = test system: A549 NSCLC
K-562 leukemia = test system: K-562 leukemia
BT-549 breast = test system: BT-549 breast
DU-145 prostate = test system: DU-145 prostate
SN12C renal = test system: SN12C renal
UACC-62 melanoma = test system: UACC-62 melanoma
PC-3 prostate = test system: PC-3 prostate
SK-MEL-5 melanoma = test system: SK-MEL-5 melanoma
NCI-H23 lung = test system: NCI-H23 lung

COC(=O)c1ccc2c(c1)c1c(C)c3ccncc3c(C)c1n2C
GI50 (MDA-MB-468 breast): 0.767 µM | TGI (MDA-MB-468 breast): 15.2 µM

C=C1CC[C@@H]2[C@]3(C)COC(c4cn[nH]c4-c4ccc(Br)cc4)O[C@@H]3CC[C@@]2(C)[C@@H]1C/C=C1/C(=O)OCC1O (stereo not given in full)
GI50 (OVCAR-4 ovarian): 5.02 µM | TGI (OVCAR-4 ovarian): 32.8 µM | GI50 (KM12 colon): 7.16 µM | TGI (KM12 colon): 29.2 µM | GI50 (HCT-116 colon): 1.94 µM | TGI (HCT-116 colon): 5.19 µM | GI50 (SK-OV-3 ovarian): 16.8 µM | TGI (SK-OV-3 ovarian): 32.2 µM | GI50 (U251 CNS): 6.83 µM | TGI (U251 CNS): 19.9 µM | GI50 (A498 renal): 16.8 µM | TGI (A498 renal): 30.6 µM | GI50 (M14 melanoma): 3.4 µM | TGI (M14 melanoma): 16.7 µM | GI50 (MDA-MB-435): 3.24 µM | TGI (MDA-MB-435): 15.3 µM | GI50 (OVCAR-5 ovarian): 10 µM | TGI (OVCAR-5 ovarian): 23.1 µM | GI50 (HOP-62 NSCLC): 18.9 µM | TGI (HOP-62 NSCLC): 37.3 µM | GI50 (CAKI-1 renal): 8.18 µM | TGI (CAKI-1 renal): 22 µM | GI50 (MDA-MB-468 breast): 2.47 µM | TGI (MDA-MB-468 breast): 9.41 µM | GI50 (SNB-75 CNS): 7.04 µM | TGI (SNB-75 CNS): 25.7 µM | GI50 (RPMI-8226 leukemia): 2.56 µM | TGI (RPMI-8226 leukemia): > 100 µM | GI50 (HT29 colon): 2.8 µM | TGI (HT29 colon): 10.5 µM | GI50 (ACHN renal): 2.16 µM | TGI (ACHN renal): 6.16 µM | GI50 (SW-620 colon): 2.33 µM | TGI (SW-620 colon): 6.36 µM | GI50 (IGROV1 ovarian): 13.8 µM | TGI (IGROV1 ovarian): 30.9 µM | GI50 (MALME-3M melanoma): 3.98 µM | TGI (MALME-3M melanoma): 17.7 µM | GI50 (MOLT-4 leukemia): 2.86 µM | TGI (MOLT-4 leukemia): 13.6 µM | GI50 (HS 578T breast): 17.7 µM | TGI (HS 578T breast): > 100 µM | GI50 (NCI-H226 lung): 1.93 µM | TGI (NCI-H226 lung): 4.32 µM | GI50 (SF-539 CNS): 2.2 µM | TGI (SF-539 CNS): 5.67 µM | GI50 (NCI-H460 lung): 12.6 µM | TGI (NCI-H460 lung): 29.7 µM | GI50 (TK-10 renal): 18.4 µM | TGI (TK-10 renal): 33.4 µM | GI50 (HCC-2998 colon): 9.11 µM | TGI (HCC-2998 colon): 21.4 µM | GI50 (RXF 393 renal): 1.9 µM | TGI (RXF 393 renal): 4.42 µM | GI50 (NCI-H522 lung): 2.08 µM | TGI (NCI-H522 lung): 5.75 µM | GI50 (MCF7 breast): 2.13 µM | TGI (MCF7 breast): 10.4 µM | GI50 (HOP-92 NSCLC): 5.08 µM | TGI (HOP-92 NSCLC): 22.7 µM | GI50 (OVCAR-3 ovarian): 2.08 µM | TGI (OVCAR-3 ovarian): 4.49 µM | GI50 (EKVX NSCLC): 4.68 µM | TGI (EKVX NSCLC): 17.7 µM | GI50 (CCRF-CEM leukemia): 2.81 µM | TGI (CCRF-CEM leukemia): 44.2 µM | GI50 (SK-MEL-2 melanoma): 5.85 µM | TGI (SK-MEL-2 melanoma): 20.8 µM | GI50 (NCI/ADR-RES ovarian): 2.2 µM | TGI (NCI/ADR-RES ovarian): 6.91 µM | GI50 (LOX IMVI melanoma): 1.37 µM | TGI (LOX IMVI melanoma): 2.72 µM | GI50 (SF-268 CNS): 16.5 µM | TGI (SF-268 CNS): 42.3 µM | GI50 (786-0 renal): 5.75 µM | TGI (786-0 renal): 18.8 µM | GI50 (UACC-257 melanoma): 11.8 µM | TGI (UACC-257 melanoma): 27.5 µM | GI50 (HL-60(TB) leukemia): 2.3 µM | TGI (HL-60(TB) leukemia): 17.6 µM | GI50 (OVCAR-8 ovarian): 3.24 µM | TGI (OVCAR-8 ovarian): 61.9 µM | GI50 (COLO 205 colon): 4.45 µM | TGI (COLO 205 colon): 18.1 µM | GI50 (SK-MEL-28 melanoma): 2.13 µM | TGI (SK-MEL-28 melanoma): 4.95 µM | GI50 (HCT-15 colon): 1.97 µM | TGI (HCT-15 colon): 5.3 µM | GI50 (SF-295 CNS): 12.1 µM | TGI (SF-295 CNS): 25.4 µM | GI50 (A549 NSCLC): 11.1 µM | TGI (A549 NSCLC): 26.4 µM | GI50 (K-562 leukemia): 2.24 µM | TGI (K-562 leukemia): 15.4 µM | GI50 (BT-549 breast): 2.88 µM | TGI (BT-549 breast): 12.3 µM | GI50 (DU-145 prostate): 8.24 µM | TGI (DU-145 prostate): 23.6 µM | GI50 (SN12C renal): 7.51 µM | TGI (SN12C renal): 21.5 µM | GI50 (UACC-62 melanoma): 3.44 µM | TGI (UACC-62 melanoma): 15.8 µM | GI50 (PC-3 prostate): 4.08 µM | TGI (PC-3 prostate): 30.3 µM | GI50 (SK-MEL-5 melanoma): 10.4 µM | TGI (SK-MEL-5 melanoma): 23.4 µM | GI50 (NCI-H23 lung): 10.5 µM | TGI (NCI-H23 lung): 23.1 µM
